Data as given in US8232452B2, “Methods, means and compositions for enhancing agrobacterium-mediated plant cell transformation efficiency” (priority 2005, dated 2012).
Like-named read-outs stand apart in the source and are kept apart here.

Columns and labels:
Agrobacterium = assay type: in vivo
N. benthamiana [1] = assay: Measurement of calcium influx (aequorin) in N. benthamiana; details: N. benthamiana expressing the effector
Experimental: An intracellular increase of calcium was measured by Agrobacterium-mediated transient expression of 35S:aequorin [3]. Leaf discs (2*0.38 cm^2/well) were floated on H2O containing 2.5 μM coelentherazine overnight in the dark and at room temperature, and luminescence was measured after elicitation withl0 μg/ml PtabF using the Photek camera system.

N. benthamiana [2] = assay type: in vivo
N. benthamiana [3] = assay type: cell-based; details: leaf tissue transiently expressing the effector, t=600 s
Arabidopsis [4] = assay: Oxidative burst in Arabidopsis expressing AvrPto / AvrPtoB; assay type: cell-based; details: Arabidopsis expressing the effector
Description: FIG. 13. […] Western Blot confirms the expression of the protein. […] The excel graph is a quantitative readout of the same experiment.

[5] = test system: SIPK (a MAP Kinase from N. benthamiana); assay type: cell-based; details: induced with PtabF
N. benthamiana [6] = assay type: cell-based; details: induced with flagellin or INF1
Agrobacterium (C58C1) = assay: Bacterial growth curves of A. tumefaciens C58C1 in N. benthamiana
tomato = assay: Nonhost HR assay in tomato; assay type: in vivo
Experimental: For elicitation of the HR, purified flagellin or INF1 were infiltrated (at 100 μg/ml) in the first fully expanded leaf of three to four week-old plants. A. tumefaciens mediated transient expression was performed as described previously. The tissue was usually used for further experimentation 2 dpi.

Arabidopsis [7] = assay: Flagellin HR in Arabidopsis; assay type: in vivo
rice = assay: Flagellin HR in rice; assay type: in vivo
A. tumefaciens = assay: Agrobacterium-mediated transient GUS expression in Arabidopsis leaves with co-injected peptides; details: co-injection of 1 μM peptide with A. tumefaciens, 4 dpi
Experimental: (B) Quantitative GUS assays with extracts from leaves of wild type and efr-1 mutants 4 days after infiltration with 2*10^8 A. tumefaciens carrying pBIN19-35S::GUS. […] Bars and error bars represent mean and standard error of n=6 independent extractions from two leaves each.
Agrobacterium-mediated expression in Arabidopsis was performed as described previously (Joh et al., 2005). Briefly, Agrobacterium GV3101 strain carrying the GUS-intron transgene in pBIN19g was grown overnight in L medium at 28° C. This culture was diluted 10-fold in fresh L medium and incubated for further 5 h. Bacteria were then collected by centrifugation, resuspended in water at an OD600 of 0.4, and injected into leaves of 4-5 week-old Arabidopsis plants.
To test if EF-Tu perception plays a role in restricting A. tumefaciens infection, wild-type (Col-0) and efr-1 leaves were injected with the hyper-virulent non-tumorigenic strain of A. tumefaciens (GV3101) harbouring a binary plasmid containing a β-glucuronidase (GUS)-intron construct that allows expression in plants but not in bacteria.

Arabidopsis leaf tissues = assay: Oxidative burst in leaf tissues (luminol based assay); assay type: cell-based; details: line SALK—044334 (efr-1) leaf tissue, 1 μM
Description: (B) Oxidative burst in leaf tissues of wild-type Col-0, efr-1 and fls2 plants. […] Results are averages±standard errors (n=8).
(§1) EF-Tu perception shares many features with perception of flagellin. Both PAMPs are peptides which activate their receptors in a two step process according to the concept of address-message (Bauer et al., 2001; Kunze et al., 2004). […] Thus, we speculated that perception of EF-Tu might involve a RLK gene related to FLS2 and that belongs to the group of RLKs induced after stimulation with both PAMPs. Starting with close relatives of FLS2 we established a collection of homozygous T-DNA-tagged mutants for induced LRR-RLKs from lines provided by the Salk collection (Alonso et al., 2003). These mutant lines were then tested for response to EF-Tu using the seedling growth inhibition assay that has been successfully employed previously to screen for flg22-insensitive mutants (Gómez-Gómez and Boller, 2000). […] Apart from lack of responses to EF-Tu-derived elicitors, this line was indistinguishable from wild-type plants and no other phenotype became apparent over several generations.

Arabidopsis cells = assay: Extracellular (medium) alkalinization in cultured cells; assay type: cell-based; details: 100 nM peptide, saturating dose
Arabidopsis seedlings = assay: Seedling growth inhibition assay; assay type: in vivo; details: line SALK—044334 (efr-1), 1 μM
Experimental: Fresh weight of seedlings was determined 7 days later. Values represent average and standard variation of n=6.
Pictures were taken after one week of treatment.
as §1

receptor sites for EF-Tu = target: T1, receptor sites for EF-Tu (Arabidopsis thaliana, UniProt C0LGT6); assay: Number of receptor sites for EF-Tu (elf-^125I binding) after pretreatment with flg22
T1 construct: from tissue; host or cells: crude extracts of Arabidopsis seedlings
T1 sequence (C0LGT6 25-1031): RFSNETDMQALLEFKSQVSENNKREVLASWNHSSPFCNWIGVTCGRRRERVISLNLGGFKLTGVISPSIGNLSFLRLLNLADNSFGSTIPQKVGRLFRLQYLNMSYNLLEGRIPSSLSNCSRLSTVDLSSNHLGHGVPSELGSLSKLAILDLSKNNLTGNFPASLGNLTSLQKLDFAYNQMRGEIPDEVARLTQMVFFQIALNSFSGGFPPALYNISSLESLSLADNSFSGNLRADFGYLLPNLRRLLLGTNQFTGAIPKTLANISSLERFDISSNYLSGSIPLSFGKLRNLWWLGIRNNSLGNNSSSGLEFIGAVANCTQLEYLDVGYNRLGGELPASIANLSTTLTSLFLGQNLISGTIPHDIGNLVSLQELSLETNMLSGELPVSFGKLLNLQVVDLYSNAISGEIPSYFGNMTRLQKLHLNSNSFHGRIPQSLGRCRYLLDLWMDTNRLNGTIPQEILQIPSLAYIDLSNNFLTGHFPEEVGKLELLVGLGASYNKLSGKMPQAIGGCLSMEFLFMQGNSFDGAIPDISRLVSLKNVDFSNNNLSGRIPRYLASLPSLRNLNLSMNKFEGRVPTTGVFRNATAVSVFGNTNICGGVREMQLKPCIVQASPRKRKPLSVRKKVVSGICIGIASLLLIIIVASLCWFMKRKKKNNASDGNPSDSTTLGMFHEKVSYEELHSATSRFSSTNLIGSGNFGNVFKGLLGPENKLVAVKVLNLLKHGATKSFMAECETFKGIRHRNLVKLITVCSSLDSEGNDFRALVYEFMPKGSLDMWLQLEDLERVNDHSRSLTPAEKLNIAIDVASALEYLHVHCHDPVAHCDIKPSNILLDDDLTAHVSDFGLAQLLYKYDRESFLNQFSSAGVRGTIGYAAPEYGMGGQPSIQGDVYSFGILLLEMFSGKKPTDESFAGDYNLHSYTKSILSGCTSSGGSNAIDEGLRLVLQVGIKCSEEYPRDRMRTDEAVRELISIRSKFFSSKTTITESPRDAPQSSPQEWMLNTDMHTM

O=CC[C@@H](O)[C@H](O)[C@H](O)CO [2-DDG, 2-deoxy-D-Glucose]
level of GUS expression (Agrobacterium; 250 μM, sprayed one day prior to Agrobacterium infiltration): seemed to improved the level of GUS expression | level of GUS expression (Agrobacterium; spray pre-treatment combined with co-infiltration, xanthan gum 150 μg/ml, 2-DDG 250 μM (FIG. 17)): significantly enhanced

AvrPtoB: P. syringae type-III effector protein expressed in the plant tissue, unrelated to AvrPto
effect on calcium burst (N. benthamiana [1]): suppress calcium burst | effect on nonhost HR induced by flagellin (N. benthamiana [2]): suppress this nonhost HR | effect on PtabF-induced ROS (N. benthamiana [3]): Suppression of PtabF-induced ROS | effect on oxidative burst (Arabidopsis [4]): exact same result | effect on MAPK activation [5]: Suppression | effect on callose deposition (N. benthamiana [6]): Suppression | growth of Agrobacterium (C58C1) (Agrobacterium (C58C1)): enhance the growth of Agrobacterium | effect on nonhost HR induced by flagellin (tomato; tomato): suppress this nonhost HR

Flagellin
nonhost HR (N. benthamiana [2]; flagellin from Pseudomonas syringae): induces a nonhost HR | HR (Arabidopsis [7]): No flagellin HR | HR (rice): induce the HR | nonhost HR (tomato; tomato (76R), flagellin from Pseudomonas syringae): induces a nonhost HR

flg22: the flagellin peptide recognized by most plants (QRLTTGYRINSAKDDAAGLQIS)
transformation (GUS activity) (A. tumefaciens; efr-1 leaves): strongly reduced transformation | GUS expression (A. tumefaciens; wild type leaves): nearly abolished GUS expression | oxidative burst (Arabidopsis leaf tissues): full response | time lag of alkalinization (Arabidopsis cells): only few seconds | seedling growth (Arabidopsis seedlings): as sensitive to treatment with flg22 as wild-type seedlings | increase in specific receptor sites for the other PAMP (EF-Tu) (receptor sites for EF-Tu; cultured cells, data not shown): > 2 fold | number of specific binding sites for EF-Tu relative to controls (receptor sites for EF-Tu; seedlings, 1 μM flg22, within 4 to 6 h of treatment): > 2 fold
